Test system: yeast genes (level of expressed mRNA)
Assay: DNA chip analysis of expressed mRNA of yeast genes after 2 h culture with a toxic chemical substance
Type: cell-based, Saccharomyces cerevisiae S288C
Method: Yeast (Saccharomyces cerevtisiae S288C (α SUC2mal mel gap2 CUP1)) were cultured at 25° C. on YPD medium (yeast extract 1%, polypepton 2%, glucose 2%). One of toxic chemical substances was added to the cell at logarithmic growth phase, and the cell was further cultured for two hours. Cell was cultured without any chemical substance in the same condition, and was used as control. Concentrations of the chemical substances were defined to inhibit the growth of the yeast but not lead to death.
After the completion of cultivation, the culture was centrifuged to collect the cells. To the cells, sodium acetate buffer (50 mM sodium acetate, 10 mM EDTA, 1% SDS) was added, and the mixture was shaken at 65° C. for five minutes, followed by returning to room temperature, and obtaining the supernatant, which procedure was repeated two times. To the supernatant, ½ amount of a solution of phenol/chloroform was added, and the mixture was centrifuged to give a supernatant, which was added with an equal amount of chloroform, and the mixture was centrifuged to give a supernatant. To the supernatant, an equal amount of isopropanol containing 0.3 M sodium acetate was added, and the mixture was allowed to stand at room temperature for 30 minutes, after which the mixture was centrifuged to give a sediment of the whole RNAs. Seventy % ethanol was added to the sediment, and the mixture was again centrifuged to give a sediment, which was then dried and dissolved in water. mRNA was isolated from the whole RNAs as followings. In view of the fact that a poly A chain is attached to the 3′ terminus of mRNA, a polynucleotide having a poly T structure which was immobilized on the surface of latex beads was used to trap the mRNA, and then the mRNA was washed and eluted with spine column (Oligotex-dT30<Super>mRNA Purification Kit, Takara). Reverse transcription of the mRNA was conducted with a reverse transcriptase (Super Script II Reverse Transcriptase; catalogue No. 18064-014, GibcoBRL) using fluorescence-labeled nucleotides to give cDNAs that were introduced with Cy3-dUTP or Cy5-dUTP during the reverse transcription.
The labeled cDNAs were dissolved in TE buffer (10 mM Tris-HCl/1 mM EDTA, pH8.0), and the solution was dropped on the DNA chip containing the whole genes of yeast (DNA Chip Research Inc. Japan) so that the cDNAs were hybridized on the DNA chip at 65° C. for over 12 hours. The fluoresces intensity of the DNA chip was read with a scanner, and the ratio relative to the fluorescence intensity resulting from the absence of chemical substance was estimated as the following, which is shown in Tables 1 to 9: [formula]
In the Tables, “Intensity” indicated in the rightmost column is a value of the level of expressed mRNA of each gene in control cells as divided by the average level of the expressions of the whole genes.

## COc1cc(CNC(=O)CCCCC=CC(C)C)ccc1O [(12), 8-methyl-N-vanillyl-6-nonenamide]
Gene YHL006C
  The level of expressed mRNA in the presence of chemical substance/absence: YHL006C: 1.0
Gene YHL021C
  The level of expressed mRNA in the presence of chemical substance/absence: YHL021C: 1.1
Gene YHL037C
  The level of expressed mRNA in the presence of chemical substance/absence: YHL037C: 0.6
Gene YHR037W
  level of expressed mRNA in the presence of chemical substance/in its absence: 1.1
Gene YHR083W
  The level of expressed mRNA in the presence of chemical substance/absence: YHR083W: 0.9
Gene YHR092C
  level of expressed mRNA in the presence of chemical substance/in its absence: 1.0
Gene YHR095W
  The level of expressed mRNA in the presence of chemical substance/absence: YHR095W: 0.6
Gene YHR105W
  The level of expressed mRNA in the presence of chemical substance/absence: YHR105W: 0.7
Gene YHR134W
  The level of expressed mRNA in the presence of chemical substance/absence: YHR134W: 1.0
Gene YHR137W
  level of expressed mRNA in the presence of chemical substance/in its absence: 0.6
Gene YHR180W
  The level of expressed mRNA in the presence of chemical substance/absence: YHR180W: 0.7
Gene YHR181W
  The level of expressed mRNA in the presence of chemical substance/absence: YHR181W: 0.8
Gene YHR190W
  level of expressed mRNA in the presence of chemical substance/in its absence: 1.1
Gene YIL033C
  level of expressed mRNA in the presence of chemical substance/in its absence: 1.1
Gene YIL108W
  The level of expressed mRNA in the presence of chemical substance/absence: YIL108W: 0.7
Gene YIL127C
  The level of expressed mRNA in the presence of chemical substance/absence: YIL127C: 0.7
Gene YIL154C
  level of expressed mRNA in the presence of chemical substance/in its absence: 1.1
Gene YIL165C
  The level of expressed mRNA in the presence of chemical substance/absence: YIL165C: 0.9
Gene YIL167W
  level of expressed mRNA in the presence of chemical substance/in its absence: 0.7
Gene YIR035C
  level of expressed mRNA in the presence of chemical substance/in its absence: 0.9
Gene YJL017W
  The level of expressed mRNA in the presence of chemical substance/absence: YJL017W: 1.3
Gene YJL032W
  The level of expressed mRNA in the presence of chemical substance/absence: YJL032W: 0.5
Gene YJL037W
  The level of expressed mRNA in the presence of chemical substance/absence: YJL037W: 0.8
Gene YJL049W
  The level of expressed mRNA in the presence of chemical substance/absence: YJL049W: 0.8
Gene YJL088W
  level of expressed mRNA in the presence of chemical substance/in its absence: 0.7
Gene YJL097W
  The level of expressed mRNA in the presence of chemical substance/absence: YJL097W: 1.0
Gene YJL132W
  level of expressed mRNA in the presence of chemical substance/in its absence: 1.0
Gene YJL196C
  level of expressed mRNA in the presence of chemical substance/in its absence: 1.1
Gene YJR030C
  The level of expressed mRNA in the presence of chemical substance/absence: YJR030C: 0.9
Gene YJR044C
  The level of expressed mRNA in the presence of chemical substance/absence: YJR044C: 0.7
Gene YJR142W
  level of expressed mRNA in the presence of chemical substance/in its absence: 0.8
Gene YJR148W
  level of expressed mRNA in the presence of chemical substance/in its absence: 0.8
Gene YJR159W
  level of expressed mRNA in the presence of chemical substance/in its absence: 1.5
Gene YKL051W
  The level of expressed mRNA in the presence of chemical substance/absence: YKL051W: 0.8
Gene YKL059C
  The level of expressed mRNA in the presence of chemical substance/absence: YKL059C: 0.9
Gene YKL067W
  level of expressed mRNA in the presence of chemical substance/in its absence: 0.9
Gene YKL090W
  The level of expressed mRNA in the presence of chemical substance/absence: YKL090W: 0.6
Gene YKL094W
  The level of expressed mRNA in the presence of chemical substance/absence: YKL094W: 0.9
Gene YKL097C
  The level of expressed mRNA in the presence of chemical substance/absence: YKL097C: 0.6
Gene YKL100C
  The level of expressed mRNA in the presence of chemical substance/absence: YKL100C: 0.9
Gene YKR039W
  level of expressed mRNA in the presence of chemical substance/in its absence: 1.5
Gene YKR040C
  The level of expressed mRNA in the presence of chemical substance/absence: YKR040C: 0.8
Gene YLR097C
  The level of expressed mRNA in the presence of chemical substance/absence: YLR097C: 0.8
Gene YLR142W
  level of expressed mRNA in the presence of chemical substance/in its absence: 0.8
Gene YLR180W
  level of expressed mRNA in the presence of chemical substance/in its absence: 0.6
Gene YLR226W
  The level of expressed mRNA in the presence of chemical substance/absence: YLR226W: 0.7
Gene YLR273C
  level of expressed mRNA in the presence of chemical substance/in its absence: 0.9
Gene YLR300W
  level of expressed mRNA in the presence of chemical substance/in its absence: 0.5
Gene YLR307W
  level of expressed mRNA in the presence of chemical substance/in its absence: 0.7
Gene YLR338W
  The level of expressed mRNA in the presence of chemical substance/absence: YLR338W: 0.6
Gene YLR339C
  The level of expressed mRNA in the presence of chemical substance/absence: YLR339C: 0.6
Gene YLR392C
  The level of expressed mRNA in the presence of chemical substance/absence: YLR392C: 0.6
Gene YLR415C
  The level of expressed mRNA in the presence of chemical substance/absence: YLR415C: 0.8
Gene YLR427W
  The level of expressed mRNA in the presence of chemical substance/absence: YLR427W: 0.9
Gene YML013W
  The level of expressed mRNA in the presence of chemical substance/absence: YML013W: 0.9
Gene YML029W
  The level of expressed mRNA in the presence of chemical substance/absence: YML029W: 1.1
Gene YML041C
  The level of expressed mRNA in the presence of chemical substance/absence: YML041C: 0.8
Gene YML079W
  The level of expressed mRNA in the presence of chemical substance/absence: YML079W: 1.1
